In US10919891B2, “Heterocyclic compound” (TAKEDA PHARMACEUTICAL COMPANY LIMITED, priority 2017, dated 2021):

Biological target: T1, human CaSR (Homo sapiens, UniProt P41180)
T1 construct: expressed in transfected cells; host or cells: CHO cells
T1 sequence (P41180 20-1078): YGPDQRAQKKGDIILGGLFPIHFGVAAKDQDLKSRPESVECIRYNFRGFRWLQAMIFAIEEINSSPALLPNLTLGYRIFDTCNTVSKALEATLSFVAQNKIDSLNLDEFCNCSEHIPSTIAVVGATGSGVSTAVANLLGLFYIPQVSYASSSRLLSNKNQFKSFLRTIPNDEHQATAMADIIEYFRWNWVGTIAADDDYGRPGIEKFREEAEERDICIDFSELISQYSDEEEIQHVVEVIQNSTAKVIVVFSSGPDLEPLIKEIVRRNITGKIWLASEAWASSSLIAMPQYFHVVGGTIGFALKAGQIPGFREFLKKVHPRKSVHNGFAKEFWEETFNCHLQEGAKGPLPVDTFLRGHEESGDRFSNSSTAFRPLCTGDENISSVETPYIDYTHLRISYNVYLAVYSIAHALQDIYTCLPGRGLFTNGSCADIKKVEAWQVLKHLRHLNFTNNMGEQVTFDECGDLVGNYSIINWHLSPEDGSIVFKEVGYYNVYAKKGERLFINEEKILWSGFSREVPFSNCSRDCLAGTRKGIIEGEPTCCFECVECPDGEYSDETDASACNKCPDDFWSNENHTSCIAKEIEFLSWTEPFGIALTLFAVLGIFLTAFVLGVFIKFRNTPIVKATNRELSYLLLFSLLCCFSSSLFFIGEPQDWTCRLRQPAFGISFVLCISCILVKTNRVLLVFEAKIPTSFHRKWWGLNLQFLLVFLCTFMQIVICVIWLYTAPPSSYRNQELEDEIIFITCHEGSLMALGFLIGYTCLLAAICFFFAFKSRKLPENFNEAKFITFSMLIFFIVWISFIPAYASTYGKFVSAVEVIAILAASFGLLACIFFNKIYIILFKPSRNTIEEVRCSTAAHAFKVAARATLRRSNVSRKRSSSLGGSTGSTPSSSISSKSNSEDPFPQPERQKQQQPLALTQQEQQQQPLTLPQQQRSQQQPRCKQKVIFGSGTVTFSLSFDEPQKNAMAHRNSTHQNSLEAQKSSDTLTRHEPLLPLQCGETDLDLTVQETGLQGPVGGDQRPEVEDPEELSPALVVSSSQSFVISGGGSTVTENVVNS
Test: Human CaSR Antagonist Activity (CHO cells, NFAT-Luciferase reporter)
Type: cell-based
Details: 3.3 μm test compound; CaCl2 final 1.3 mM; 100% = reference carboxamide at 10 μM
Protocol: CaSR antagonist activity measurement was performed using Bright-Glo Luciferase assay system (Promega Corporation). CHO cells in which human CaSR and NFAT-Luciferase reporter gene were forcibly expressed were suspended in MEM alpha (Wako Pure Chemical Industries, Ltd.) containing 10% dialyzed serum (HyClone). The cells in suspension was seeded in 384-well white plate (Corning) at 10,000/20 μL/well, and cultured in an incubator of 37° C., 5% CO2 for one day. A diluent of Test compound was prepared with assay buffer (MEM alpha containing 10 mM HEPES (Life Technologies) and 10% dialysis serum). The diluent was added to the plate at 5 μL/well and allowed to stand at 37° C. for 10 minutes. Further, a diluent of 7.8 mM CaCl2 prepared with assay buffer (final concentration 1.3 mM) was added at 5 μl/well and allowed to stand in an incubator of 37° C., 5% CO2 for 2 hours. Bright-Glo reagents (Promega Corporation) were added at 10 μL/well, and the obtained mixture was stirred for 5 minutes, and then luminescence intensity was measured using Multi-label reader Envision (PerkinElmer, Inc.). The activity (%) of the test compound was calculated with the definitions in which the luminescence intensity when DMSO is added in place of the test compound is defined as 0% inhibition; and the luminescence intensity when (5R)—N-(1-ethyl-1-(4-ethylphenyl)propyl)-2,7,7-trimethyl-5-phenyl-4,5,6,7-tetrahydropyrazolo[1,5-a]Pyrimidine-3-carboxamide at final concentration of 10 μM is added is defined as 100% inhibition.

Inhibition rate (%) at 3.3 μm [%]	SMILES
101	CC1(C)C[C@H](c2ccccc2)Nc2c(C(=O)N3CC4CC4(c4ccc(C(F)(F)F)cc4F)C3)cnn21 (stereo partly drawn) [Example 28, ((5R)-7,7-Dimethyl-5-phenyl-4,5,6,7-tetrahydropyrazolo[1,5-a]pyrimidin-3-yl)(1-(2-fluoro-4-(trifluoromethyl)phenyl)-3-azabicyclo[3.1.0]hex-3-yl)methanone]

Same assay, conditions: CHO, 2 h, 3.3 μm test compound; CaCl2 final 1.3 mM; 100% = reference carboxamide at 10 μM; read-out: Inhibition rate (%) at 3.3 μm

SMILES	inhibition at 3.3 µM [%]
COc1cccc(C23CC2CN(C(=O)c2cnn4c2N[C@@H](c2ccccc2)CC4(C)C)C3)c1 (stereo partly drawn) [Example 19, ((5R)-7,7-Dimethyl-5-phenyl-4,5,6,7-tetrahydropyrazolo[1,5-a]pyrimidin-3-yl)(1-(3-methoxyphenyl)-3-azabicyclo[3.1.0]hex-3-yl)methanone]	99
CC1(C)C[C@H](c2ccccc2)Nc2c(C(=O)N3CC4CC4(c4ccc(C(F)(F)F)cc4F)C3)cnn21 (stereo partly drawn) [Example 27, ((5R)-7,7-Dimethyl-5-phenyl-4,5,6,7-tetrahydropyrazolo[1,5-a]pyrimidin-3-yl)(1-(2-fluoro-4-(trifluoromethyl)phenyl)-3-azabicyclo[3.1.0]hex-3-yl)methanone]	111
CC1(C)C[C@H](c2ccccc2)Nc2c(C(=O)N3CC4CC4(c4ccc(C(F)(F)F)c(Cl)c4)C3)cnn21 (stereo partly drawn) [Example 12, (1-(3-Chloro-4-(trifluoromethyl)phenyl)-3-azabicyclo[3.1.0]hex-3-yl)((5R)-7,7-dimethyl-5-phenyl-4,5,6,7-tetrahydropyrazolo[1,5-a]pyrimidin-3-yl)methanone]	90
CC1(C)C[C@H](c2ccccc2)Nc2c(C(=O)N3CC4CC4(c4cccc(Cl)c4)C3)cnn21 (stereo partly drawn) [Example 16, (1-(3-Chlorophenyl)-3-azabicyclo[3.1.0]hex-3-yl)((5R)-7,7-dimethyl-5-phenyl-4,5,6,7-tetrahydropyrazolo[1,5-a]pyrimidin-3-yl)methanone]	100
Cc1cccc(C23CC2CN(C(=O)c2cnn4c2N[C@@H](c2ccccc2)CC4(C)C)C3)c1 (stereo partly drawn) [Example 22, ((5R)-7,7-Dimethyl-5-phenyl-4,5,6,7-tetrahydropyrazolo[1,5-a]pyrimidin-3-yl)(1-(3-methylphenyl)-3-azabicyclo[3.1.0]hex-3-yl)methanone]	101

Other lines, results leading:

inhibition at 3.3 µM [%]	SMILES
136	Cc1cccc(C23CN(C(=O)c4cnn5c4N[C@@H](c4ccccc4)CC5(C)C)CC2C3(F)F)c1 (stereo partly drawn) [Example 49, (6,6-Difluoro-1-(3-methylphenyl)-3-azabicyclo[3.1.0]hex-3-yl)((5R)-7,7-dimethyl-5-phenyl-4,5,6,7-tetrahydropyrazolo[1,5-a]pyrimidin-3-yl)methanone]
111	COc1ccccc1C12CN(C(=O)c3cnn4c3N[C@@H](c3ccccc3)CC4(C)C)CC1C2(F)F (stereo partly drawn) [Example 52, (6,6-Difluoro-1-(2-methoxyphenyl)-3-azabicyclo[3.1 0]hex-3-yl)((5R)-7,7-dimethyl-5-phenyl-4.5,5,7-tetrahydropyrazolo[1,5-a]pyrimidin-3-yl)methanone]
96	CC1(C)C[C@H](c2ccccc2)Nc2c(C(=O)N3CC4CC4(c4ccncc4)C3)cnn21 (some centres unmarked) [Example 45]
115	COc1cccc(C23CN(C(=O)c4cnn5c4N[C@@H](c4ccccc4)CC5(C)C)CC2C3(F)F)c1 (stereo partly drawn) [Example 51, (6,6-Difluoro-1-(3-methoxyphenyl)-3-azabicyclo[3.1.0]hex-3-yl)((5R)-7,7-dimethyl-5-phenyl-4,5,6,7-tetrahydropyrazolo[1,5-a]pyrimidin-3-yl)methanone]
99	CC1(C)C[C@H](c2ccccc2)Nc2c(C(=O)N3CC4CC4(c4ccsc4)C3)cnn21 (stereo partly drawn) [Example 46, ((5R)-7,7-Dimethyl-5-phenyl-4,5,6,7-tetrahydropyrazolo[1,5-a]pyrimidin-3-yl)(1-(3-thienyl)-3-azabicyclo[3.1.0]hex-3-yl)methanone]
